Data as given in patent publication US7709513B2, “Benzooxazol-2-one derivatives as lipase and phospholipase inhibitors” (Sanofi-Aventis, priority 2005, dated 2010).

Target: T1, endothelial lipase (EL) (Homo sapiens, UniProt Q9Y5X9)
T1 construct: made in house; host or cells: recombinant cell lines (CHO, HEK293); concentrated conditioned medium used as enzyme solution
T1 sequence (Q9Y5X9 21-500): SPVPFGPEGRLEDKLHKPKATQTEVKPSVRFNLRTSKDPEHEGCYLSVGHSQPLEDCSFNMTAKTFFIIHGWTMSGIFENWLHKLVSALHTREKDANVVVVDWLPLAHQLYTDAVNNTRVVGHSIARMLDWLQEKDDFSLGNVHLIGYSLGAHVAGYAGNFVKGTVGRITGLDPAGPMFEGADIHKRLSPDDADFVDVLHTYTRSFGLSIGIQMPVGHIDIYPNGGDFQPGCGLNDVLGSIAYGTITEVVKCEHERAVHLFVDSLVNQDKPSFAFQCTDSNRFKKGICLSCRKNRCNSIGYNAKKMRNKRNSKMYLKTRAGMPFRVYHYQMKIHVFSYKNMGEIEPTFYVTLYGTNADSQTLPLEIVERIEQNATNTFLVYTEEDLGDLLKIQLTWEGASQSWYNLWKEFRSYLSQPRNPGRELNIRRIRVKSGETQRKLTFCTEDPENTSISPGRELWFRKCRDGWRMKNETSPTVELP
Experiment: Further EL inhibition assay
Format: biochemical
Conditions: Bodipy-labelled phospholipid substrate, 37° C., 90 minutes, HPTLC fluorescence readout; EL from conditioned medium of recombinant cell lines (CHO, HEK293)
From the text: EL is released as secretory protein in high concentration into cell culture medium (conditioned medium) by recombinant cell lines (CHO, HEK293). This is employed as enzyme solution after concentration.
The phospholipase-specific substrate 1,2-bis(4,4-difluoro-5,7-dimethyl-4-bora-3a,4a-diaza-s-indacene-3-undecanoyl)-sn-glycero-3-phosphocholine, (manufacturer Molecular Probes) is used to characterize the enzymatic activity of endothelial lipase and the effect of inhibitors. Hydrolysis of the A1 ester linkage of this phospholipid by the enzyme liberates the fluorescent dye Bodipy which can be detected after separation by thin-layer chromatography on an HPTLC plate (silica gel 60, Merck) or directly in the reaction vessel by measuring the fluorescence.
The substrate solution is prepared by dissolving 100 μg of 1,2-bis(4,4-difluoro-5,7-dimethyl-4-bora-3a,4a-diaza-s-indacene-3-undecanoyl)-sn-glycero-3-phospho-choline (manufacturer Molecular Probes) in 100 μl of DMSO and taking up in 2.4 mg of tripalmitin (Sigma) in 393 μl of chloroform which comprises 20 mg/ml DOP-choline (1,2-dioleoyl-sn-glycero-3-phosphocholine). 39.3 μl of this lipid mixture are transferred into a fresh reaction vessel, and the solvent is evaporated off. The lipid mixture is dissolved in 4 ml of 200 mM TRIS-HCl, 150 mM sodium chloride, pH=7.4, by sonication twice. The subsequent enzymic reaction takes place at 37° C. for 90 minutes. For this purpose, 20 μl of the substrate solution are incubated with 2 μl of inhibitor of appropriate concentration (dissolved in 10% DMSO, using 10% strength DMSO solution for control) and 2 μl of enzyme solution (conditioned medium). The 4 μl of the assay mixture are loaded onto an HPTLC plate (silica gel 60, Merck), and the liberated fluorescent dye is separated for detection with an eluent (diethyl ether:petroleum benzine:acetic acid [78:22:1]). After evaporation of the eluent, the plate is read in a fluorescence scanner. An increased liberation of the fluorescent dye in the uninhibited reaction is to be observed as a measure of the enzymic activity.

| SMILES | IC50 [µM] |
| --- | --- |
| CC(=O)c1ccc2c(c1)oc(=O)n2C(=O)NCc1ccccc1C [Example 2, 6-Acetyl-2-oxobenzooxazole-3-(2-methylbenzyl)carboxamide] | 0.51 |
| Cc1ccccc1CNC(=O)n1c(=O)oc2ccccc21 [Example 5, 2-Oxobenzooxazole-3-(2-methylbenzyl)carboxamide] | 0.95 |
| O=C(NCc1ccccc1)n1c(=O)oc2ccc(Cl)cc21 [Example 7, 5-Chloro-2-oxobenzooxazole-3-benzylcarboxamide] | 0.23 |

The next compounds have a lower IC50 than those just listed; values first:

| IC50 [µM] | SMILES |
| --- | --- |
| 0.13 | CC(=O)c1ccc2c(c1)oc(=O)n2C(=O)NCc1ccccc1 [Example 1, 6-Acetyl-2-oxobenzooxazole-3-benzylcarboxamide] |
| 0.06 | CCCCCCNC(=O)n1c(=O)oc2cc(C(C)=O)ccc21 [Example 3, 6-Acetyl-2-oxobenzooxazole-3-hexylcarboxamide] |
